Data: US20250243238A1, “TETRAZINE AMINO ACIDS AND METHODS FOR THEIR PRODUCTION AND USE” (Oregon State University, priority 2024, published 2025)

Assays:
[1] = system: Mb-PylRS/tRNACUA pairs D4 and E1; experiment: Efficiency, fidelity and permissivity of evolved synthetases: GFP150-TAG expression in E. coli with Tet ncAA; format: cell-based, Methanosarcina barkeri; details: synthetases D4 and E1
Protocol: (§1) To incorporate Tet ncAAs in the protein, a GCE machinery was developed to encode Tet ncAAs into the protein in response to TAG codon suppression with evolving orthogonal aaRS/tRNAcuA pair. The permissibility of developed synthetases for structurally parallel Tet ncAA derivatives was evaluated in 25 mL scale in presence and absence of 0.5 mM Tet ncAA.
(§2) Efficiency and fidelity of selected synthetases. The efficiency and fidelity of the selected synthetases were measured by expressing GFP150 in 50 mL AIM with and without 0.5 mM Tet4-Ph. DH10b cells containing the selected pBK-RSs and the pALS-GFP150TAG plasmids, were used to inoculate 5 mL of NIM containing kanamycin (50 μg/mL) and tetracycline (25 μg/mL). Cells were grown for 16 hours at 37° C. shaking at 250 rpm. The saturated NIM cultures (500 μL) were used to inoculate in 50 mL AIM containing kanamycin (50 μg/mL) and tetracycline (25 μg/mL) and measured fluorescence using a Turner Biosystems Picofluor fluorimeter diluting 100 μL cell culture in 1.9 mL water. Two synthetases D4 and E1 for Tet4-Ph were identified to have good efficiency and fidelity. The selected two synthetases are differ at two mutation sites C313A/G and W382I/V respectively.
(§3) Permissivity screen for Tet4-Pyr with selected synthetases. To assess if the top four selected RSs for Tet4-Ph could incorporate Tet4-Pyr, expressions of GFP150TAG with Tet4-Pyr were evaluated. Using the above efficiency and fidelity method, 5 mL AIM separate cultures were inoculated with cells containing the pBK-RSs/pALS-GFP150. Tet4-Pyr (0.5 mM) was added to cultures from a 50 mM DMF ncAA stock solution. Cultures were grown for 30-36 hours at 37° C. and 250 rpm. Fluorescence of the culture was measured by diluting 100 μL cell culture in 1.9 mL water.
(§4) Expression and purification of GFP150-TAG-Tet4. […] Protein concentration was determined by measuring absorbance at 280 nm. Protein purity was assessed using SDS-PAGE.

[2] = Stability and reactivity of incorporated Tet ncAA inside protein on storage in PBS; format: physicochemical
Protocol: The stability and reaction efficiency of incorporated Tet ncAAs in proteins was investigated. […] The SDS-PAGE gel mobility shift assay and mass spectrometry analysis of the incorporated Tet-v2.0, Tet-v3.0 and Tet-v4.0 derivatives confirmed their stability and reactivity with sTCO.
Mobility shift assay. Labeling efficiency and purity of Tet-containing proteins have been verified by reacting with 10 eqv. sTCO-PEG5k under PBS (pH 7.1) for 10 minutes at room temperature and examined the mobility shift of the reacted proteins in SDS-PAGE gel. The mobility shift assay helps to provide an insight into the reaction efficiency of Tet-containing proteins and also quantifies the amount of reactive Tet ncAA present in protein and measures if there is any misincorporation or Tet-degradation by showing unreactive protein.
In addition, to assess their stability and reactivity more rigorously, GFP-Tet-v4.0 (Ph, 3-Me-Ph, 3-F-Ph and Pyr) were incubated at 4° C. and room temperature (RT) under 50 mM PBS (pH 7.1) with 100 mM imidazole and studied their reaction efficiency for another 8 days.
Mass spectrometry. The site-specific labelling reaction between Tet ncAA and sTCO is quantitative inside protein was confirmed by ESI-Q-TOF mass spectrometry. […] No other peak has been detected for sTCO exposed samples which verified that the GFP-Tet reacts with sTCO quantitatively without involving side reactions.

[3] = system: Pyl-tRNA/RS pairs (Tet4 E1 and D4 synthetases); experiment: Tet4 ncAA incorporation into GFP150-TAG in HEK293T cells, suppression efficiency by flow cytometry; format: cell-based, Methanosarcina barkeri; details: flow cytometry
Protocol: (§5) To access newly developed Tet4.0 derivatives into mammalian cells, an optimized eukaryotic expression system was used and their stability and reaction efficiency were validated inside living cells. The permissibility of Tet-v4.0 derivatives into eukaryotic protein was tested with an evolved synthetase Tet-v4.0 E1 and D4 co-transfected with the reporter plasmid pAcBac1-sfGFP-TAG150 into the HEK293T cells and supplemented with 100 μM each of five different Tet-v4.0 (Ph, 3-Me-Ph, 3-F-Ph, 4-F-Ph, and Pyr) derivatives side-by-side.
(§6) The compatibility of the Tet4 system with mammalian cells was explored. Specifically, the ability of Tet4 to be incorporated into proteins expressed in HEK293T cells, an immortalized human embryonic kidney cell line, was explored. […] Genes for Tet4 E1 and D4 synthetases were cloned with a terminal nuclear export sequence into the eukaryotic expression Pyl-tRNA/RS vector pAcBac1. Pyl-tRNA/RS pairs were then co-transfected with pAcBac1-GFP150-TAG into HEK293T cells and incubated either in the absence of ncAA, or with various concentrations of Tet4 ncAAs, and suppression efficiencies were assessed using flow cytometry. Tet4-Ph and Tet4-Pyr were incorporated into GFP about 50% as well as the Tet-v3.0 system, Tet3-Bu. As with Tet4 incorporation into E. coli expressed proteins, the highest suppression efficiencies in HEK293T cells were obtained with Mb-PylRS synthetase E1 and Tet4-Ph ncAA. Selective incorporation and reactivity of GFP150-Tet4 proteins were verified in whole-cell HEK293T lysates using sTCO-PEG5k-induced SDS-PAGE mobility shifts, and in purified proteins by mass spectrometry.
(§7) Transfection of HEK293T cells and imaging method. HEK293T cells were plated in a 24-well plate at the density of 40% confluency. Cells were transfected the next day using jetPRIME reagent according to the manufacturer's protocol. Briefly, 67 ng of pAcBac1-NES-D4-RS or pAcBac1-NES-E1-RS and 555 ng of pAcBac1-GFP-150TAG plasmid DNA were diluted with 50 μL of jetPRIME buffer. […] GFP expression was verified by fluorescence microscopy on EVOS FL imaging system.

[4] = biological target: T1, Mb-PylRS/tRNACUA pairs D4 and E1 (Methanosarcina barkeri, UniProt Q6WRH6, C313A/N311S/V366H/W382I); experiment: Efficiency, fidelity and permissivity of evolved synthetases: GFP150-TAG expression in E. coli with Tet ncAA; format: cell-based; details: synthetase D4 only
T1 construct: D4-Py1RS (Protein); expressed in transfected cells; host or cells: E. coli DH10b carrying pBK-RS and pALS-GFP150TAG
Protocol: as §1, §2, §3, §4

[5] = biological target: T2, Pyl-tRNA/RS pairs (Tet4 E1 and D4 synthetases) (Methanosarcina barkeri, UniProt Q6WRH6, C313A/N311S/V366H/W382I); experiment: Tet4 ncAA incorporation into GFP150-TAG in HEK293T cells, suppression efficiency by flow cytometry; format: cell-based; details: 100 μM ncAA, synthetase D4
T2 construct: D4-Py1RS (Protein); expressed in transfected cells; host or cells: HEK293T
Protocol: as §5, §6, §7

T1 sequence (Q6WRH6 whole entry N311S/C313A/V366H/W382I): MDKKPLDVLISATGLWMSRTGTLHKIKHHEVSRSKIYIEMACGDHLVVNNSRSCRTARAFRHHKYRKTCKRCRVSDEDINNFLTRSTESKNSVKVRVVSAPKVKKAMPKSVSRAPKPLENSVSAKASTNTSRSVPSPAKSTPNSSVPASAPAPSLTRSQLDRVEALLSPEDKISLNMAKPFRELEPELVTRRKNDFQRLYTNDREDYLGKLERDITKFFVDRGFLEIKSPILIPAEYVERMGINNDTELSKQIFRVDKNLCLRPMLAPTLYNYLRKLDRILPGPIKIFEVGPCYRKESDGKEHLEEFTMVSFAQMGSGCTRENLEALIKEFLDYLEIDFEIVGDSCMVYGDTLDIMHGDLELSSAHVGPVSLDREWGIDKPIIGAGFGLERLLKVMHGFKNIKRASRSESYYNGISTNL
T2 sequence (Q6WRH6 whole entry N311S/C313A/V366H/W382I): as above

SMILES | yield of GFP150-TAG expressed with the ncAA [1] [mg/L] | stability inside protein ([2]; PBS pH 7.1, both 4° C. and RT, after 8 days) | incorporation into GFP relative to the Tet-v3.0 system, Tet3-Bu [3] | yield of GFP150-TAG expressed with the ncAA [4] | yield of GFP150-TAG expressed with the ncAA ([4]; listed as Tet-v4.0Pyr) [mg/L] | stability and reactivity inside protein ([2]; GFP-Tet protein, PBS pH 7.1, room temperature) | incorporation into GFP-TAG150 [5]
N[C@@H](Cc1nnc(-c2ccccc2)nn1)C(=O)O [Tet4-Ph, (S)-2-amino-3-(6-phenyl-1,2,4,5-tetrazin-3-yl)propanoic acid] | 55 to 60 | highly stable | about 50% | – | – | – | –
N[C@@H](Cc1nnc(-c2ccccn2)nn1)C(=O)O [Tet4-Pyr, (S)-2-amino-3-(6-(pyridin-2-yl)-1,2,4,5-tetrazin-3-yl)propanoic acid] | – | – | about 50% | about 40 mg/L | 35 to 40 | degraded with time | relatively high yield
